Values after ≈ are worked out from the molar mass of the structure shown. Where a SMILES comes first, the peptide text is derived from it. Bridges are numbered along the chain shown (N, C = ends). Roman numbers before positions name the chains, in order. [ ]: non-standard residue; d: D form. Thr(ol) = C[C@@H](O)[C@H](N)CO; Pen = CC(C)(S)[C@H](N)C(=O)O; Tle = CC(C)(C)[C@H](N)C(=O)O; Hiv = CC(C)[C@H](O)C(=O)O; dDab = NCC[C@@H](N)C(=O)O; hSer = N[C@@H](CCO)C(=O)O; Orn = NCCC[C@H](N)C(=O)O; Dab = NCC[C@H](N)C(=O)O; Dap = NC[C@H](N)C(=O)O
Tests used:
Assay type in all cases: cell-based
[1] = test system: Acinetobacter baumannii 872842; conditions: 872842
Outline: (§1)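 Standard CLSI microdilution testing: bacterial suspensions standardized against 0.5 McFarland to about 10^6 CFU/mL in MH-II broth meet serially halved peptide concentrations in broth containing 0.002% polysorbate 80; incubation lasts 18-20 h at 35° C before the MIC is scored.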

[2] = test system: Acinetobacter baumannii DSM 30008; conditions: DSM 30008
Outline: as §1

[3] = test system: Enterobacter cloacae 848840; conditions: 848840
Outline: as §1

Escherichia coli 926415 = conditions: 926415
Outline: as §1

[4] = test system: Escherichia coli ATCC 25922; conditions: ATCC 25922
Outline: as §1

[5] = test system: Klebsiella pneumoniae 968733; conditions: 968733
Outline: as §1

[6] = test system: Klebsiella pneumoniae SSI #3010; conditions: SSI #3010
Outline: as §1

[7] = test system: Pseudomonas aeruginosa ATCC 27853; conditions: ATCC 27853
Outline: as §1

[8] = test system: human red blood cells (hRBC); assay: Hemolysis; conditions: red cells of human, 1 h, 200
Outline: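 Washed fresh hRBC (20% v/v) were incubated with peptides at 200 μg/mL for 1 h at 37° C with shaking at 300 rpm. Supernatant OD540 was read after centrifugation and dilution, blank-corrected, and expressed as percent of the 2% Triton X-100 (100% lysis) control; PBS with 10% water gave 0%.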

Structure (SMILES)	MIC [1] [µg/mL]	MIC [2] [µg/mL]	MIC [3] [µg/mL]	MIC (Escherichia coli 926415) [µg/mL]	MIC [4] [µg/mL]	MIC [5] [µg/mL]	MIC [6] [µg/mL]	MIC [7] [µg/mL]	Hemolysis at 200 μg/mL [8] [%]	Acinetobacter baumannii DSM 30008 MIC [2] [µg/mL]	Escherichia coli ATCC 25922 MIC [4] [µg/mL]	Klebsiella pneumoniae SSI #3010 MIC [6] [µg/mL]	Pseudomonas aeruginosa ATCC 27853 MIC [7] [µg/mL]
CC(C)C[C@@H]1NC(=O)[C@@H](CC(C)C)NC(=O)[C@H](CCN)NC(=O)[C@@H](NC(=O)[C@H](CCN)NC(=O)[C@H](CO)NC(=O)[C@H](CCN)NC(=O)CC[C@@H]2NC(=O)[C@H](CCN)NC(=O)[C@H](Cc3ccc(O)cc3)NC(=O)[C@@H](NC(=O)[C@@H](O)C(C)C)CSSC[C@@H](C(=O)N[C@H](CO)[C@@H](C)O)NC(=O)[C@H](C(C)(C)C)NC(=O)[C@H](CO)NC(=O)[C@H](Cc3c[nH]c4ccccc34)NC(=O)[C@H](CCO)NC(=O)[C@@H](CCN)NC2=O)CCNC(=O)[C@H]([C@@H](C)O)NC(=O)[C@H](CCN)NC(=O)[C@H](CCN)NC1=O [Ex. 60] (I: H-[Hiv]CY[Dab]E[dDab][hSer]WS[Tle]C[Thr(ol)] / II: [Dab]S[Dab][Dab][Dab][dL]L[Dab][Dab]T; disulfide I:2-I:11; amide I:5-II:N; lactam II:4-II:C)	0.125 (≈ 0.0524 µM)	0.0625 (≈ 0.0262 µM)	4 (≈ 1.68 µM)	0.125 (≈ 0.0524 µM)	0.0625 (≈ 0.0262 µM)	0.125 (≈ 0.0524 µM)	0.125 (≈ 0.0524 µM)	0.125 (≈ 0.0524 µM)	<1	–	–	–	–
CC(=O)N[C@H](C(=O)N[C@@H](CN)C(=O)N[C@@H](Cc1ccc(O)cc1)C(=O)N[C@H]1CSSC[C@@H](C(=O)N[C@H](C(=O)N[C@@H](CC(=O)O)C(=O)N[C@H](C(N)=O)[C@@H](C)O)C(C)(C)C)NC(=O)[C@H](Cc2c[nH]c3ccccc23)NC(=O)[C@H](CO)NC(=O)[C@@H](CCN)NC(=O)[C@H](CCC(=O)N[C@@H](CCN)C(=O)N[C@H](C(=O)N[C@@H](CN)C(=O)N[C@H]2CCNC(=O)[C@H]([C@@H](C)O)NC(=O)[C@H](CCN)NC(=O)[C@H](CCN)NC(=O)[C@H](CC(C)C)NC(=O)[C@@H](CC(C)C)NC(=O)[C@H](CCN)NC2=O)[C@@H](C)O)NC1=O)C(C)C [Ex. 227] (I: Ac-V[Dap]YCE[dDab]SWC[Tle]DT-NH2 / II: [Dab]T[Dap][Dab][Dab][dL]L[Dab][Dab]T; disulfide I:4-I:9; amide I:5-II:N; lactam II:4-II:C)	0.125 (≈ 0.0512 µM)	0.03125 (≈ 0.0128 µM)	0.125 (≈ 0.0512 µM)	0.125 (≈ 0.0512 µM)	0.03125 (≈ 0.0128 µM)	0.5 (≈ 0.205 µM)	0.125 (≈ 0.0512 µM)	0.125 (≈ 0.0512 µM)	<1	–	–	–	–
CC(=O)N[C@H](C(=O)N[C@H]1CSSC[C@@H](C(=O)N[C@@H](CO)C(N)=O)NC(=O)[C@H](C(C)C)NC(=O)[C@H](CO)NC(=O)[C@H](Cc2c[nH]c3ccccc23)NC(=O)[C@H](CCN)NC(=O)[C@@H](CCN)NC(=O)[C@H](CCC(=O)N[C@@H](CCN)C(=O)N[C@H](C(=O)N[C@@H](CN)C(=O)N[C@H]2CCNC(=O)[C@H]([C@@H](C)O)NC(=O)[C@H](CCN)NC(=O)[C@H](CCN)NC(=O)[C@H](CC(C)C)NC(=O)[C@@H](CC(C)C)NC(=O)[C@H](CCN)NC2=O)[C@@H](C)O)NC(=O)[C@H](CO)NC(=O)[C@H](Cc2ccc(O)cc2)NC1=O)C(C)C [Ex. 251] (I: Ac-VCYSE[dDab][Dab]WSVCS-NH2 / II: [Dab]T[Dap][Dab][Dab][dL]L[Dab][Dab]T; disulfide I:2-I:11; amide I:5-II:N; lactam II:4-II:C)	0.03125 (≈ 0.013 µM)	0.01562 (≈ 0.00651 µM)	0.125 (≈ 0.0521 µM)	0.125 (≈ 0.0521 µM)	0.03125 (≈ 0.013 µM)	0.0625 (≈ 0.0261 µM)	0.03125 (≈ 0.013 µM)	0.0625 (≈ 0.0261 µM)	1	–	–	–	–
CC(C)C[C@@H]1NC(=O)[C@@H](CC(C)C)NC(=O)[C@H](CCN)NC(=O)[C@@H](NC(=O)[C@H](CN)NC(=O)[C@@H](NC(=O)[C@H](CCN)NC(=O)CC[C@H]2NC(=O)[C@H](CCCN)NC(=O)[C@@H](NC(=O)[C@H](Cc3ccc(O)cc3)NC(=O)[C@@H](NC(=O)[C@@H](O)C(C)C)[C@@H](C)O)CSSC[C@@H](C(=O)N[C@H](C(=O)N[C@@H](C)C(=O)N[C@H](CO)[C@@H](C)O)C(C)(C)C)NC(=O)[C@H](Cc3c[nH]c4ccccc34)NC(=O)[C@H]([C@@H](C)O)NC2=O)[C@@H](C)O)CCNC(=O)[C@H]([C@@H](C)O)NC(=O)[C@H](CCN)NC(=O)[C@H](CCN)NC1=O [Ex. 210] (I: H-[Hiv]TYC[Orn][dE]TWC[Tle]A[Thr(ol)] / II: [Dab]T[Dap][Dab][Dab][dL]L[Dab][Dab]T; disulfide I:4-I:9; amide I:6-II:N; lactam II:4-II:C)	0.5 (≈ 0.21 µM)	0.25 (≈ 0.105 µM)	2 (≈ 0.838 µM)	2 (≈ 0.838 µM)	0.125 (≈ 0.0524 µM)	2 (≈ 0.838 µM)	0.25 (≈ 0.105 µM)	0.25 (≈ 0.105 µM)	<1	–	–	–	–
CC(=O)N[C@@H](CC(C)C)C(=O)N[C@H]1CSSC[C@@H](C(=O)N[C@@H](CO)C(N)=O)NC(=O)[C@H](C(C)C)NC(=O)[C@H](CCN)NC(=O)[C@H](Cc2c[nH]c3ccccc23)NC(=O)[C@H](CO)NC(=O)[C@@H](CCN)NC(=O)[C@H](CCC(=O)N[C@@H](CCN)C(=O)N[C@H](C(=O)N[C@@H](CN)C(=O)N[C@H]2CCNC(=O)[C@H]([C@@H](C)O)NC(=O)[C@H](CCN)NC(=O)[C@H](CCN)NC(=O)[C@H](CC(C)C)NC(=O)[C@@H](CC(C)C)NC(=O)[C@H](CCN)NC2=O)[C@@H](C)O)NC(=O)[C@H](CCN)NC(=O)[C@H](Cc2ccc(O)cc2)NC1=O [Ex. 330] (I: Ac-LCY[Dab]E[dDab]SW[Dab]VCS-NH2 / II: [Dab]T[Dap][Dab][Dab][dL]L[Dab][Dab]T; disulfide I:2-I:11; amide I:5-II:N; lactam II:4-II:C)	1 (≈ 0.412 µM)	–	0.125 (≈ 0.0515 µM)	0.25 (≈ 0.103 µM)	–	2 (≈ 0.824 µM)	–	–	1	0.25	0.0625	0.0625	0.25
CC(=O)N[C@H](C(=O)N[C@H]1CSSC[C@@H](C(=O)N[C@@H](CO)C(N)=O)NC(=O)[C@H](C(C)C)NC(=O)[C@@H]2CSSC[C@H](NC(=O)[C@H](Cc3ccc(O)cc3)NC1=O)C(=O)N[C@@H](CCC(=O)N[C@@H](CCN)C(=O)N[C@H](C(=O)N[C@@H](CCN)C(=O)N[C@H]1CCNC(=O)[C@H]([C@@H](C)O)NC(=O)[C@H](CCN)NC(=O)[C@H](CCN)NC(=O)[C@H](CC(C)C)NC(=O)[C@@H](CC(C)C)NC(=O)[C@H](CCN)NC1=O)[C@@H](C)O)C(=O)N[C@H](CCN)C(=O)N[C@@H](CCO)C(=O)N[C@@H](Cc1c[nH]c3ccccc13)C(=O)N2)C(C)C [Ex. 175] (I: Ac-VCYCE[dDab][hSer]WCVCS-NH2 / II: [Dab]T[Dab][Dab][Dab][dL]L[Dab][Dab]T; disulfide I:2-I:11, I:4-I:9; amide I:5-II:N; lactam II:4-II:C)	0.0625 (≈ 0.0256 µM)	0.125 (≈ 0.0511 µM)	0.25 (≈ 0.102 µM)	0.25 (≈ 0.102 µM)	0.0625 (≈ 0.0256 µM)	0.5 (≈ 0.205 µM)	0.125 (≈ 0.0511 µM)	0.125 (≈ 0.0511 µM)	1	–	–	–	–
CC(C)C[C@@H]1NC(=O)[C@@H](CC(C)C)NC(=O)[C@H](CCN)NC(=O)[C@@H](NC(=O)[C@H](CCN)NC(=O)[C@@H](NC(=O)[C@H](CCN)NC(=O)CC[C@@H]2NC(=O)[C@H](CCN)NC(=O)[C@H](Cc3ccc(O)cc3)NC(=O)[C@@H](NC(=O)[C@@H](N)C(C)C)C(C)(C)SSC[C@@H](C(=O)N[C@@H](CO)C(=O)O)NC(=O)[C@H](C(C)(C)C)NC(=O)[C@H](CO)NC(=O)[C@H](Cc3c[nH]c4ccccc34)NC(=O)[C@H]([C@@H](C)O)NC(=O)[C@@H](CCN)NC2=O)[C@@H](C)O)CCNC(=O)[C@H]([C@@H](C)O)NC(=O)[C@H](CCN)NC(=O)[C@H](CCN)NC1=O [Ex. 54] (I: H-V[Pen]Y[Dab]E[dDab]TWS[Tle]CS-OH / II: [Dab]T[Dab][Dab][Dab][dL]L[Dab][Dab]T; disulfide I:2-I:11; amide I:5-II:N; lactam II:4-II:C)	0.5 (≈ 0.206 µM)	0.25 (≈ 0.103 µM)	4 (≈ 1.65 µM)	0.5 (≈ 0.206 µM)	0.0625 (≈ 0.0257 µM)	4 (≈ 1.65 µM)	0.25 (≈ 0.103 µM)	0.25 (≈ 0.103 µM)	<1	–	–	–	–
